Test results: US20210255193A1, “LYSINE REACTIVE PROBES AND USES THEREOF” (The Scripps Research Institute, priority 2017, published 2021)
One block for each compound: values may come before it.

Legend:
Assay in all cases: competitive isoTOP-ABPP
Format in all cases: binding
[1] = biological target: T1, MAP4K5 Mitogen-activated protein kinase kinase kinase kinase 5 (Homo sapiens, UniProt Q9Y4K4); conditions: 50 uM, 231 sol, in vitro
T1 construct: endogenous in cells; host or cells: MDA-MB-231 (soluble fraction of lysate)
T1 sequence (Q9Y4K4 whole entry): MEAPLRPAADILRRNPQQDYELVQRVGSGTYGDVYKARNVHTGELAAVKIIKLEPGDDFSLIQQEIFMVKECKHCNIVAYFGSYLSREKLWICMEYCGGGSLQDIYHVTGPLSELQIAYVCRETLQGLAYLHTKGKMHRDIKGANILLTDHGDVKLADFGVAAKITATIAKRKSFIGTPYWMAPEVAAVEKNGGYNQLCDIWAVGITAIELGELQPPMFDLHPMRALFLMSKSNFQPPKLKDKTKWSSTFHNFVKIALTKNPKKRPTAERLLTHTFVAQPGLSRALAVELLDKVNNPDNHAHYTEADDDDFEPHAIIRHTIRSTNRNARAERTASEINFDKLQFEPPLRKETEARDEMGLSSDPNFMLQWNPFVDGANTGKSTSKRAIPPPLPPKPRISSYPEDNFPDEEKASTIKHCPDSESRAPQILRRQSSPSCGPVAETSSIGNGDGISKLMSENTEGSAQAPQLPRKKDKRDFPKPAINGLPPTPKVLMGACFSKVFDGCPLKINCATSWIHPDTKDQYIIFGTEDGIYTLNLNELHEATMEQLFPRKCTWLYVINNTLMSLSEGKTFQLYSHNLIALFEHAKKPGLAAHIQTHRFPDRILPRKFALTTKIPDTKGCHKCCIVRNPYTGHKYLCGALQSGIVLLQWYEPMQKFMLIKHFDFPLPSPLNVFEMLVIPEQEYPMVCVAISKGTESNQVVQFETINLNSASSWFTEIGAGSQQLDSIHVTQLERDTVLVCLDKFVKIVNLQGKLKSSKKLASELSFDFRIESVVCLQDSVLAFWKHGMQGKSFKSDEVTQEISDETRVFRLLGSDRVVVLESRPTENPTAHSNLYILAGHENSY
Method in brief: (§1)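 Here, isoTOP-ABPP measures loss of STP-alkyne labeling at individual lysines after fragment exposure in lysate. Activated esters are dosed at 50 μM, guanidinylating agents at 100 μM; the probe follows at 0.1 mM for 1 h. R ≥4 marks a liganded lysine.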

F3 Tissue factor = biological target: T2, F3 Tissue factor (Homo sapiens, UniProt P13726); conditions: for isoTOP-ABPP ratio (R) at liganded lysine P13726_K279: 50 uM, in vitro, sol, 231
T2 construct: isoTOP-ABPP experiments performed in cell lysates (in vitro); endogenous in cells; host or cells: soluble proteome of human cancer cell lines (MDA-MB-231; Ramos and Jurkat also prepared)
T2 sequence (P13726 33-295): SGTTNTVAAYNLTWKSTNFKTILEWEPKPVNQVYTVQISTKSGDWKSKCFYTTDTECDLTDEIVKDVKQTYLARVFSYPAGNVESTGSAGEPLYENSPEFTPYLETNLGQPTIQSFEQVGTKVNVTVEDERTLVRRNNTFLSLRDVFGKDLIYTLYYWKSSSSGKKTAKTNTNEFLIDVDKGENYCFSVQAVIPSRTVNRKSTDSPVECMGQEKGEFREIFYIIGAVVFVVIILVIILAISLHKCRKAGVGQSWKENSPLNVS
Method in brief: as §1

[2] = biological target: T3, PTGR1 Prostaglandin reductase 1 (Homo sapiens, UniProt Q14914)
T3 construct: isoTOP-ABPP experiments performed in cell lysates (in vitro); endogenous in cells; host or cells: soluble proteome of human cancer cell lines (MDA-MB-231; Ramos and Jurkat also prepared)
T3 sequence (Q14914 whole entry): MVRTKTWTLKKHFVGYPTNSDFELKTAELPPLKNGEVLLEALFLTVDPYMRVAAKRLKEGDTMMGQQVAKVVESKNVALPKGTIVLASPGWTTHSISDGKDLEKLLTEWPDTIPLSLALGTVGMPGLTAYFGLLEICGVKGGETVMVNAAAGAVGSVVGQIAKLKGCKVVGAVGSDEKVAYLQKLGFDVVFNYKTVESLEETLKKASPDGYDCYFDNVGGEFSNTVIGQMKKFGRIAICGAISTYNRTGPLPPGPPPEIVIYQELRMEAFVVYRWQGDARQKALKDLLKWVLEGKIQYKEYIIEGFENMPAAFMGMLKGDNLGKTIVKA
Method in brief: as §1

[3] = biological target: T4, REEP5 Receptor expression-enhancing protein 5 (Homo sapiens, UniProt Q00765)
T4 construct: isoTOP-ABPP experiments performed in cell lysates (in vitro); endogenous in cells; host or cells: soluble proteome of human cancer cell lines (MDA-MB-231, Ramos, Jurkat)
T4 sequence (Q00765 whole entry): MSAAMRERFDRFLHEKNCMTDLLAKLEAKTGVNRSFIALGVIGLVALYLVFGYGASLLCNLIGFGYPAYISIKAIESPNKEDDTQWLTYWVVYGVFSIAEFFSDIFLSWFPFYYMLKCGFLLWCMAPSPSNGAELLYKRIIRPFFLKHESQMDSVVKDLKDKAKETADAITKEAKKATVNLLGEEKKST
Method in brief: as §1

[4] = biological target: T5, UBA2 SUMO-activating enzyme subunit 2 (Homo sapiens, UniProt Q9UBT2); conditions: 50 uM, in vitro
T5 construct: endogenous in cells; host or cells: MDA-MB-231 (soluble fraction of lysate)
T5 sequence (Q9UBT2 1-640): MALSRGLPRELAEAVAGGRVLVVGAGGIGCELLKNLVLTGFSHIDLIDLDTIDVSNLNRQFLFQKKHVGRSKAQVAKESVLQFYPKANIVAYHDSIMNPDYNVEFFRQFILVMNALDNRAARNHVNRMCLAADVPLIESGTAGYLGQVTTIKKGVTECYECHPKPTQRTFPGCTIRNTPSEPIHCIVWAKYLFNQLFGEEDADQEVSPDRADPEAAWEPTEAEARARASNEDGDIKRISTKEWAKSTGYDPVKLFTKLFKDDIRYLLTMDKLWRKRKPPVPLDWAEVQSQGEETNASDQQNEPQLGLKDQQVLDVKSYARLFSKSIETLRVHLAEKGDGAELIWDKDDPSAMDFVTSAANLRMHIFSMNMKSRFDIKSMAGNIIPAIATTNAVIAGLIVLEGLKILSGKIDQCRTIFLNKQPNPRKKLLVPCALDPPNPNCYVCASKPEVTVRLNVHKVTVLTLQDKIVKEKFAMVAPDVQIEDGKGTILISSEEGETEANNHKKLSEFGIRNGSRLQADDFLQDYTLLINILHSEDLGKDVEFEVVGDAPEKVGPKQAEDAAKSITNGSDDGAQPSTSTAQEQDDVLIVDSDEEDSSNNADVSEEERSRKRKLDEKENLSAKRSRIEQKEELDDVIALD
T5 sequence (Q9UBE0 1-346 partner): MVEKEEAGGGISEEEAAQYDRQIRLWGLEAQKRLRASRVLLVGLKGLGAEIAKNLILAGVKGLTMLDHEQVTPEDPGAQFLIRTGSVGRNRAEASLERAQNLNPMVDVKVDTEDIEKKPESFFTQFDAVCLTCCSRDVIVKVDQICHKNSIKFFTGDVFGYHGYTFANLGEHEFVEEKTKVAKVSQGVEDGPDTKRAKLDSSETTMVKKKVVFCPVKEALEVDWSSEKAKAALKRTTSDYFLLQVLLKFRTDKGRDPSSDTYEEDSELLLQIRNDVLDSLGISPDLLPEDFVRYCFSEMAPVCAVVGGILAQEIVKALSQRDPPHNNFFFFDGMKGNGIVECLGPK
Method in brief: as §1

R value (DMSO/fragment) for probe 1 labeling ([1]; Q9Y4K4_K49): 0.6
Compound: O=C(Oc1c(F)c(F)c(F)c(F)c1F)c1cc(C(F)(F)F)cc(C(F)(F)F)c1 [fragment 21, Pentafluorophenyl 3,5-bis(trifluoromethyl)benzoate]

Compound: O=C(CCc1cn(-c2ccccc2)nc1-c1ccccc1)Oc1ccc([N+](=O)[O-])cc1[N+](=O)[O-] [fragment 29, 2,4-Dinitrophenyl 3-(1,3-diphenyl-1H-pyrazol-4-yl)propanoate]
isoTOP-ABPP reactivity ratio at lysine Q9Y4K4_K49 [1]: 1.8

Compound: Cn1cc(CC(=O)Oc2ccc([N+](=O)[O-])cc2[N+](=O)[O-])c2ccccc21 [fragment 32, 2,4-Dinitrophenyl 2-(1-methyl-1H-indol-3-yl)acetate]
isoTOP-ABPP reactivity ratio at lysine Q9Y4K4_K49 [1]: 5.3

Compound: O=C(CCc1ccc2c(c1)OCO2)Oc1ccc([N+](=O)[O-])cc1[N+](=O)[O-] [fragment 45, 2,4-Dinitrophenyl 3-(benzo[d][1,3]dioxol-5-yl)propanoate]
isoTOP-ABPP ratio, lysine P13726_K279 (F3 Tissue factor; 50 uM_231_sol_in vitro): 4.2
isoTOP-ABPP ratio, lysine Q14914_K194 ([2]; 50 uM_231_sol_in vitro): 5.5
isoTOP-ABPP ratio, lysine Q00765_K147 ([3]; 50 uM_231_sol_in vitro): 2.7

Compound: O=C(CCc1coc2cc(F)ccc2c1=O)Oc1ccc([N+](=O)[O-])cc1[N+](=O)[O-] [fragment 36, 2,4-Dinitrophenyl 3-(7-fluoro-4-oxo-4H-chromen-3-yl)propanoate]
isoTOP-ABPP ratio (R) at liganded lysine Q14914_K194 ([2]; 50 uM, in vitro, sol, 231): 1.7
isoTOP-ABPP ratio (R) at liganded lysine Q9UBT2_K409 ([4]; sol, 231): 3.6

isoTOP-ABPP ratio, lysine Q14914_K194 ([2]; 100 uM_231_sol_in vitro): 1.3
Compound: COC(=O)NC(=NC(=O)OCC1c2ccccc2-c2ccccc21)n1cccn1 [fragment 49, N-Methoxycarbonyl-N′-9-fluorenylmethoxycarbonyl-pyrazole-1-carboxamidine]

R value (DMSO/fragment) for probe 1 labeling ([3]; Q00765_K147, 50 uM, 231 sol, in vitro): 4.8
Compound: Cn1cc(CC(=O)Oc2c(F)c(F)c(F)c(F)c2F)c2ccccc21 [fragment 22, Pentafluorophenyl 2-(1-methyl-1H-indol-3-yl)acetate]

R value (DMSO/fragment) for probe 1 labeling ([2]; Q14914_K194, 50 uM, 231 sol, in vitro): 1.6
R value (DMSO/fragment) for probe 1 labeling ([4]; Q9UBT2_K409, 231 sol): 4.1
Compound: O=C(Oc1c(F)c(F)c(F)c(F)c1F)C(c1ccccc1)c1ccccc1 [fragment 20, Pentafluorophenyl 2,2-diphenylacetate]

Compound: O=C(Oc1ccc([N+](=O)[O-])cc1[N+](=O)[O-])c1cc(C(F)(F)F)cc(C(F)(F)F)c1 [fragment 31, 2,4-Dinitrophenyl 3,5-bis(trifluoromethyl)benzoate]
isoTOP-ABPP reactivity ratio at lysine Q00765_K147 ([3]; 50 uM, 231 sol, in vitro): 3.0
isoTOP-ABPP reactivity ratio at lysine Q9UBT2_K409 ([4]; 231 sol): 6.2

isoTOP-ABPP ratio, lysine P13726_K279 (F3 Tissue factor; 100 uM_231_sol_in vitro): 1.0
isoTOP-ABPP ratio, lysine Q14914_K194 ([2]; 100 uM_231_sol_in vitro): 1.2
Compound: CC(C)(C)OC(=O)N=C(NC(=O)OC(C)(C)C)n1cccn1 [fragment 50, reference compound]

Compound: N#Cc1ccc(C(=O)Oc2ccc([N+](=O)[O-])cc2[N+](=O)[O-])cc1 [fragment 44, 2,4-Dinitrophenyl 4-cyanobenzoate]
isoTOP-ABPP ratio, lysine P13726_K279 (F3 Tissue factor; 50 uM_231_sol_in vitro): 1.1

Compound: O=C(Oc1ccc([N+](=O)[O-])cc1[N+](=O)[O-])C(c1ccccc1)c1ccccc1 [fragment 30, 2,4-Dinitrophenyl 2,2-diphenylacetate]
isoTOP-ABPP reactivity ratio at lysine Q00765_K147 ([3]; 50 uM, 231 sol, in vitro): 20.0
isoTOP-ABPP reactivity ratio at lysine Q9UBT2_K409 ([4]; 231 sol): 7.3

Compound: O=C(Oc1ccc([N+](=O)[O-])cc1[N+](=O)[O-])c1ccc(Oc2ccccc2)cc1 [fragment 39, 2,4-Dinitrophenyl 4-phenoxybenzoate]
isoTOP-ABPP ratio (R) at liganded lysine P13726_K279 (F3 Tissue factor): 1.8
isoTOP-ABPP ratio (R) at liganded lysine Q00765_K147 ([3]; 50 uM, in vitro, sol, 231): 1.2

Compound: CC(=O)Oc1ccc([N+](=O)[O-])cc1[N+](=O)[O-] [fragment 43, 2,4-Dinitrophenyl acetate]
isoTOP-ABPP ratio (R) at liganded lysine P13726_K279 (F3 Tissue factor): 1.1
